Reference: US10597388B2, “Pyridazinone herbicides” (FMC CORPORATION, priority 2014, dated 2020)

Tests used:
Format in all cases: in vivo
[1] = test system: waterhemp (common waterhemp, Amaranthus rudis); assay: Test C greenhouse herbicide test, pre- and postemergence
Description: (§1) Seeds of plant species selected from blackgrass (Alopecurus myosuroides), ryegrass, Italian (Italian ryegrass, Lolium multiflorum), wheat (winter wheat, Triticum aestivum), galium (catchweed bedstraw, Galium aparine), corn (Zea mays), large crabgrass, large (large crabgrass, Digitaria sanguinalis), foxtail, giant (giant foxtail, Setaria faberii), johnsongrass (Sorghum halepense), lambsquarters (Chenopodium album), morningglory (Ipomoea coccinea), nutsedge, yellow (yellow nutsedge, Cyperus esculentus), pigweed (Amaranthus retroflexus), ragweed (common ragweed, Ambrosia elatior), soybean (Glycine max), barnyardgrass (Echinochloa crus-galli), oilseed rape (Brassica napus), waterhemp (common waterhemp, Amaranthus rudis), and velvetleaf (Abutilon theophrasti) were planted into a blend of loam soil and sand and treated preemergence with test chemicals formulated in a non-phytotoxic solvent mixture which included a surfactant.
(§2) At the same time, plants selected from these crop and weed species and also chickweed (common chickweed, Stellaria media), kochia (Kochia scoparia), and oat, wild (wild oat, Avena fatua), were planted in pots containing Redi-Earth® planting medium (Scotts Company, 14111 Scottslawn Road, Marysville, Ohio 43041) comprising spaghnum peat moss, vermiculite, wetting agent and starter nutrients and treated with postemergence applications of test chemicals formulated in the same manner. Plants ranged in height from 2 to 18 cm (1- to 4-leaf stage) for postemergence treatments. Treated plants and controls were maintained in a greenhouse for 13 to 15 d, after which time all species were compared to controls and visually evaluated. Plant response ratings, summarized in Table C, are based on a scale of 0 to 100 where 0 is no effect and 100 is complete control. A dash (-) response means no test result.

[2] = test system: johnsongrass (Sorghum halepense); assay: as above
Description: as §1, §2

[3] = test system: pigweed (Amaranthus retroflexus); assay: Test A greenhouse herbicide test, pre- and postemergence
Method in brief: (§3)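 Visual injury ratings, 0 (no effect) to 100 (complete control), versus untreated plants after roughly 10 d in a greenhouse. Compounds, formulated in a surfactant-containing non-phytotoxic solvent, were sprayed on loam–sand soil after sowing (pre) or on one- to two-leaf plants 2–10 cm tall (post).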

[4] = test system: foxtail, giant (giant foxtail, Setaria faberii); assay: as above
Method in brief: as §3

[5] = test system: wheat (Triticum aestivum); assay: as above; details: Postemergence
Method in brief: as §3

[6] = test system: barnyardgrass (Echinochloa crus-galli); assay: as above
Method in brief: as §3

corn (Zea mays) = assay: as above; details: Postemergence
Method in brief: as §3

kochia (Kochia scoparia) = assay: as above
Method in brief: as §3

[7] = test system: ragweed (common ragweed, Ambrosia elatior); assay: as above
Method in brief: as §3

[8] = test system: ryegrass, Italian (Italian ryegrass, Lolium multiflorum); assay: as above
Method in brief: as §3

[9] = Postemergence, 31 g ai/ha, scale 0 to 100 (0 no effect, 100 complete control)
[10] = Postemergence, 125 g ai/ha, scale 0 to 100, 0 is no effect, 100 is complete control
[11] = Postemergence, 250 g ai/ha, scale 0 to 100, 0 no effect, 100 complete control, 13 to 15 d
[12] = Preemergence, 31 g ai/ha, scale 0 to 100, 0 is no effect, 100 is complete control
[13] = Preemergence, 62 g ai/ha, scale 0 to 100, 0 is no effect, 100 is complete control
[14] = Preemergence, 125 g ai/ha, scale 0 to 100, 0 is no effect, 100 is complete control
[15] = Preemergence, 250 g ai/ha, scale 0 to 100, 0 no effect, 100 complete control
[16] = Postemergence, 125 g ai/ha, 0 to 100 scale where 0 is no effect and 100 is complete control
[17] = Postemergence, 500 g ai/ha, visual rating after approx. 10 d, 0 to 100 scale (0 no effect, 100 complete control)
[18] = Preemergence, 125 g ai/ha, 0 to 100 scale where 0 is no effect and 100 is complete control
[19] = Preemergence, 500 g ai/ha, 0 to 100 scale where 0 is no effect and 100 is complete control
[20] = 125 g ai/ha, 0 to 100 scale where 0 is no effect and 100 is complete control
[21] = 500 g ai/ha, visual rating after approx. 10 d, 0 to 100 scale (0 no effect, 100 complete control)

CC(=O)Oc1c(C)nn(C)c(=O)c1-c1c(C)sc2ccc(Cl)cc12 [Compound 108]
75: Plant response rating, Waterhemp [1, 12]
100: Plant response rating, Waterhemp [1, 14] | Waterhemp plant response rating [1, 15] | Plant response rating, Pigweed [3, 17] | Pigweed plant response rating [3, 18] | Plant response rating, Pigweed [3, 19] | Plant response rating, Foxtail, Giant [4, 19] | Plant response rating, Barnyardgrass [6, 19] | Plant response rating, Kochia (kochia (Kochia scoparia); [17]) | Plant response rating, Kochia (kochia (Kochia scoparia); [19]) | Plant response rating, Ragweed [7, 17] | Plant response rating, Ragweed [7, 19] | Plant response rating, Ryegrass, Italian [8, 16] | Plant response rating, Ryegrass, Italian [8, 17] | Ryegrass, Italian plant response rating [8, 18] | Plant response rating, Ryegrass, Italian [8, 19]
0: Plant response rating, Johnsongrass [2, 9] | Plant response rating, Johnsongrass [2, 12] | Plant response rating, Wheat [5, 20] | Plant response rating, Corn (corn (Zea mays); [20]) | Plant response rating, Corn (corn (Zea mays); [21])
30: Plant response rating, Johnsongrass [2, 14] | Plant response rating, Barnyardgrass [6, 16]
70: Plant response rating, Ragweed [7, 16]
60: Plant response rating, Foxtail, Giant [4, 16]
90: Plant response rating, Waterhemp [1, 10] | Plant response rating, Waterhemp [1, 13] | Plant response rating, Pigweed [3, 16] | Plant response rating, Foxtail, Giant [4, 17] | Foxtail, Giant plant response rating [4, 18] | Barnyardgrass plant response rating ([6]; Postemergence, 500 g ai/ha, 0 to 100 scale, 0 is no effect, 100 is complete control) | Plant response rating, Kochia (kochia (Kochia scoparia); [16]) | Kochia plant response rating (kochia (Kochia scoparia); [18]) | Ragweed plant response rating [7, 18]
5: Plant response rating, Johnsongrass [2, 10] | Plant response rating, Johnsongrass [2, 11] | Plant response rating, Johnsongrass [2, 13]
20: Johnsongrass plant response rating [2, 15] | Plant response rating, Wheat [5, 21] | Barnyardgrass plant response rating [6, 18]
85: Plant response rating, Waterhemp [1, 9]
98: Plant response rating, Waterhemp [1, 11]

CCC(=O)Oc1c(C)nn(C)c(=O)c1-c1ccc(F)c2ccccc12 [Compound 113]
90: Plant response rating, Waterhemp [1, 10] | Plant response rating, Pigweed [3, 16] | Plant response rating, Foxtail, Giant [4, 17] | Plant response rating, Barnyardgrass [6, 17] | Kochia plant response rating (kochia (Kochia scoparia); [18]) | Plant response rating, Ragweed [7, 16] | Plant response rating, Ragweed [7, 19]
20: Plant response rating, Johnsongrass [2, 11] | Plant response rating, Johnsongrass [2, 14] | Plant response rating, Corn (corn (Zea mays); [20])
85: Plant response rating, Waterhemp [1, 9] | Plant response rating, Waterhemp [1, 12]
0: Plant response rating, Johnsongrass [2, 9] | Plant response rating, Johnsongrass [2, 12]
30: Johnsongrass plant response rating [2, 15] | Plant response rating, Wheat [5, 20]
70: Foxtail, Giant plant response rating [4, 18] | Plant response rating, Wheat [5, 21] | Barnyardgrass plant response rating [6, 18] | Plant response rating, Corn (corn (Zea mays); [21]) | Ragweed plant response rating [7, 18]
10: Plant response rating, Johnsongrass [2, 10] | Plant response rating, Johnsongrass [2, 13]
100: Plant response rating, Waterhemp [1, 11] | Plant response rating, Waterhemp [1, 13] | Plant response rating, Pigweed [3, 17] | Pigweed plant response rating [3, 18] | Plant response rating, Pigweed [3, 19] | Plant response rating, Foxtail, Giant [4, 19] | Plant response rating, Barnyardgrass [6, 19] | Plant response rating, Kochia (kochia (Kochia scoparia); [16]) | Plant response rating, Kochia (kochia (Kochia scoparia); [17]) | Plant response rating, Kochia (kochia (Kochia scoparia); [19]) | Plant response rating, Ragweed [7, 17] | Plant response rating, Ryegrass, Italian [8, 16] | Plant response rating, Ryegrass, Italian [8, 17] | Ryegrass, Italian plant response rating [8, 18] | Plant response rating, Ryegrass, Italian [8, 19]
98: Plant response rating, Waterhemp [1, 14] | Waterhemp plant response rating [1, 15]
40: Plant response rating, Foxtail, Giant [4, 16] | Plant response rating, Barnyardgrass [6, 16]

CC(=O)Oc1c(Cl)nn(C)c(=O)c1-c1c(C)sc2ccc(Cl)cc12 [Compound 116]
10: Johnsongrass plant response rating [2, 15]
60: Plant response rating, Kochia (kochia (Kochia scoparia); [17])
70: Plant response rating, Waterhemp [1, 13] | Plant response rating, Pigweed [3, 16] | Plant response rating, Foxtail, Giant [4, 16] | Barnyardgrass plant response rating [6, 18] | Plant response rating, Ragweed [7, 16]
0: Plant response rating, Johnsongrass [2, 12] | Plant response rating, Johnsongrass [2, 13] | Plant response rating, Johnsongrass [2, 14] | Plant response rating, Corn (corn (Zea mays); [20])
50: Plant response rating, Wheat [5, 21]
30: Plant response rating, Corn (corn (Zea mays); [21]) | Plant response rating, Kochia (kochia (Kochia scoparia); [16]) | Kochia plant response rating (kochia (Kochia scoparia); [18])
80: Plant response rating, Waterhemp [1, 14] | Foxtail, Giant plant response rating [4, 18] | Ryegrass, Italian plant response rating [8, 18]
90: Pigweed plant response rating [3, 18] | Plant response rating, Pigweed [3, 19] | Plant response rating, Barnyardgrass [6, 17] | Ragweed plant response rating [7, 18] | Plant response rating, Ragweed [7, 19] | Plant response rating, Ryegrass, Italian [8, 16]
100: Waterhemp plant response rating [1, 15] | Plant response rating, Pigweed [3, 17] | Plant response rating, Foxtail, Giant [4, 17] | Plant response rating, Foxtail, Giant [4, 19] | Plant response rating, Barnyardgrass [6, 19] | Plant response rating, Kochia (kochia (Kochia scoparia); [19]) | Plant response rating, Ragweed [7, 17] | Plant response rating, Ryegrass, Italian [8, 17] | Plant response rating, Ryegrass, Italian [8, 19]
20: Plant response rating, Wheat [5, 20] | Plant response rating, Barnyardgrass [6, 16]
55: Plant response rating, Waterhemp [1, 12]

Cc1nn(C)c(=O)c(-c2c(C)sc3ccc(C(F)(F)F)cc23)c1O [Compound 121]
70: Plant response rating, Waterhemp [1, 11] | Plant response rating, Waterhemp [1, 12] | Plant response rating, Kochia (kochia (Kochia scoparia); [16])
50: Plant response rating, Barnyardgrass [6, 17] | Plant response rating, Barnyardgrass [6, 19]
85: Plant response rating, Waterhemp [1, 14]
20: Plant response rating, Wheat [5, 21] | Barnyardgrass plant response rating [6, 18] | Plant response rating, Corn (corn (Zea mays); [20]) | Plant response rating, Corn (corn (Zea mays); [21])
0: Plant response rating, Johnsongrass [2, 9] | Plant response rating, Johnsongrass [2, 12] | Plant response rating, Johnsongrass [2, 13] | Plant response rating, Johnsongrass [2, 14] | Plant response rating, Wheat [5, 20] | Kochia plant response rating (kochia (Kochia scoparia); [18])
100: Waterhemp plant response rating [1, 15] | Pigweed plant response rating [3, 18] | Plant response rating, Pigweed [3, 19] | Plant response rating, Ryegrass, Italian [8, 17]
80: Plant response rating, Foxtail, Giant [4, 17] | Foxtail, Giant plant response rating [4, 18] | Plant response rating, Foxtail, Giant [4, 19] | Plant response rating, Kochia (kochia (Kochia scoparia); [17]) | Plant response rating, Ragweed [7, 19] | Ryegrass, Italian plant response rating [8, 18]
90: Plant response rating, Pigweed [3, 16] | Plant response rating, Pigweed [3, 17] | Plant response rating, Ragweed [7, 16] | Plant response rating, Ragweed [7, 17] | Plant response rating, Ryegrass, Italian [8, 16] | Plant response rating, Ryegrass, Italian [8, 19]
75: Plant response rating, Waterhemp [1, 10]
60: Plant response rating, Waterhemp [1, 9] | Plant response rating, Foxtail, Giant [4, 16] | Ragweed plant response rating [7, 18]
5: Plant response rating, Johnsongrass [2, 10] | Plant response rating, Johnsongrass [2, 11]
95: Plant response rating, Waterhemp [1, 13]
10: Johnsongrass plant response rating [2, 15]
30: Plant response rating, Barnyardgrass [6, 16] | Plant response rating, Kochia (kochia (Kochia scoparia); [19])
